Assay results taken from patent US12435038B2 (KUNMING SINOWAY NATURAL PHARMACEUTICALS CO., LTD., priority 2019, dated 2025).

Key:
[1] = Powder properties of amlodipine mesylate monohydrate crystals (particle size distribution, carr index, angle of repose, bulk density); type: physicochemical; settings: API crystals
Text: The Carr index and angle of repose are indications of the flowability of a powdery material. To a certain extent, the Carr index is an indication of the compressibility of a powdery material. Carr index=(tap density-bulk density)/tap density*100%.
The angle of repose (α) refers to the maximum angle formed between the free inclined plane and the horizontal plane in a powder piled layer. The smaller the angle of repose (α) is, the better the flowability is. It is generally believed that the powder can flow freely if the a is less than 30°, and the flowability of the power is acceptable if the a is between 30° and 40°, while the power may have poor flowability if the a is greater than 40°.
The particle size of crystals can be measured by a Malvern Lazer Particle Analyzer which is a dry method. The particle size is related to the fluidity of a powder, and generally the larger the particle size is and the more concentrated the particle distribution is, the better the fluidity is. During the crystallization process, an average particle size (D50) of less than 15 μm may lead to difficulty in filtration and drying and easy to carry and absorb more impurities. Furthermore, the uniformity of particle size distribution can also have an impact on the properties of APIs.
(§1) Determination of other parameters of API or tablets of amlodipine mesylate monohydrate regarding quality such as water content, angle of repose, carr index, particle size, bulk density, and the like, is conduct with conventional methods well known to those skilled in the art.

[2] = Accelerated test of the API (sealed in aluminum-plastic composite film bags, 40° C., 75% RH); type: physicochemical; settings: mesylate monohydrate
Text: as §1

[3] = cited from earlier work

Molecule | particle size distribution D10 [1] [μm] | particle size distribution D50 [1] [μm] | particle size distribution D90 [1] [μm] | Average particle size ([2]; 0 month) [μm] | Bulk density ([2]; 0 month) [g/mL] | Carr index ([2]; 0 month) [%] | Character ([2]; 0 month) | Content ([2]; 0 month) [%] | Related substance ([2]; 0 month) [%] | Water content ([2]; 0 month) [%] | Average particle size ([2]; 3 months) [μm] | Bulk density ([2]; 3 months) [g/mL] | Carr index ([2]; 3 months) [%] | Content ([2]; 3 months) [%] | Related substance ([2]; 3 months) [%] | Water content ([2]; 3 months) [%] | Average particle size ([2]; 6 months) [μm] | Bulk density ([2]; 6 months) [g/mL] | Carr index ([2]; 6 months) [%] | Character ([2]; 6 months) | further results
amlodipine mesylate monohydrate [Experimental Example 2] | 32 | 68 | 117 |  |  |  |  |  |  |  |  |  |  |  |  |  |  |  |  |  | 
amlodipine mesylate monohydrate [Comparative Example 1, reference compound] | 1.73 | 6.70 | 16.4 | 6.70 | 0.22 | 41 | White like | 99.89 | 0.12 | 3.49 | 5.96 | 0.25 | 42 | 99.81 | 0.18 | 3.48 | 6.93 | 0.26 | 43 | Yellow | Content ([2]; 6 months): 99.71%; Related substance ([2]; 6 months): 0.23%; Water content ([2]; 6 months): 3.51%; Bulk density [1]: 0.22 g/mL; Carr index [1]: 41%; angle of repose [1]: 46 °; fluidity (words, from carr index and angle of repose) [1]: poor fluidity
amlodipine mesylate monohydrate [Experimental Example 3] | 34 | 69 | 120 |  |  |  |  |  |  |  |  |  |  |  |  |  |  |  |  |  | 
amlodipine mesylate monohydrate [Example 1] | 33.9 | 70.2 | 121 | 70.2 | 0.32 | 23 | White solid | 99.92 | 0.07 | 3.51 | 70.6 | 0.31 | 23 | 99.78 | 0.07 | 3.49 | 69.5 | 0.33 | 24 | White solid | Character ([2]; 3 months): White solid; Content ([2]; 6 months): 99.71%; Related substance ([2]; 6 months): 0.08%; Water content ([2]; 6 months): 3.50%; Bulk density [1]: 0.32 g/mL; Carr index [1]: 23%; angle of repose [1]: 29 °; fluidity (words, from carr index and angle of repose) [1]: good fluidity
amlodipine mesylate monohydrate [Comparative Example 2, reference compound] | 1.62 | 6.22 | 14.1 | 6.22 | 0.26 | 42 | White like | 99.82 | 0.11 | 3.57 | 5.89 | 0.27 | 41 | 99.71 | 0.18 | 3.52 | 6.74 | 0.25 | 44 | Yellow solid | Character ([2]; 3 months): Light yellow; Content ([2]; 6 months): 99.62%; Related substance ([2]; 6 months): 0.26%; Water content ([2]; 6 months): 3.53%; Bulk density [1]: 0.26 g/mL; Carr index [1]: 42%; angle of repose [1]: 45 °; fluidity (words, from carr index and angle of repose) [1]: poor fluidity
amlodipine mesylate monohydrate [Experimental Example 1] | 43 | 92 | 151 |  |  |  |  |  |  |  |  |  |  |  |  |  |  |  |  |  | 
amlodipine mesylate monohydrate |  |  |  |  |  |  |  |  |  |  |  |  |  |  |  |  |  |  |  |  | water solubility [3]: easily soluble in water; solubility relative to that of amlodipine besylate ([3]; in water): more than 10 time
CCOC(=O)C1=C(COCCN)NC(C)=C(C(=O)OC)C1c1ccccc1Cl (stereo not shown) [Amlodipine free base, Amlodipine] |  |  |  |  |  |  |  |  |  |  |  |  |  |  |  |  |  |  |  |  | water solubility [3]: poor water solubility
amlodipine mesylate monohydrate [Example 2] | 34.8 | 72.1 | 126 | 72.1 | 0.33 | 23 | White solid | 99.95 | 0.06 | 3.51 | 71.8 | 0.32 | 24 | 99.81 | 0.07 | 3.52 | 72.4 | 0.32 | 24 | White solid | Character ([2]; 3 months): White solid; Content ([2]; 6 months): 99.73%; Related substance ([2]; 6 months): 0.08%; Water content ([2]; 6 months): 3.49%; Bulk density [1]: 0.33 g/mL; Carr index [1]: 23%; angle of repose [1]: 31 °; fluidity (words, from carr index and angle of repose) [1]: good fluidity
amlodipine mesylate monohydrate [Example 3] | 32.9 | 70.1 | 124 | 70.1 | 0.30 | 24 | White solid | 99.93 | 0.07 | 3.50 | 69.5 | 0.31 | 23 | 99.82 | 0.08 | 3.48 | 71.4 | 0.32 | 25 | White solid | Character ([2]; 3 months): White solid; Content ([2]; 6 months): 99.71%; Related substance ([2]; 6 months): 0.10%; Water content ([2]; 6 months): 3.49%; Bulk density [1]: 0.30 g/mL; Carr index [1]: 24%; angle of repose [1]: 33 °; fluidity (words, from carr index and angle of repose) [1]: good fluidity
